In patent US12139520B2 (priority 2020, dated 2024):
Bridge positions count the residues as written; N and C are the ends. Square brackets hold non-standard residues; d marks the D form. Peptide text beside a SMILES is read from it. Hyp = O=C(O)[C@@H]1C[C@@H](O)CN1; Cit = NC(=O)NCCC[C@H](N)C(=O)O

Assays:
[1] = target: T1, hAMY3 receptor (Homo sapiens, UniProt O60896+P30988); assay: cAMP assay for in vitro receptor activation, hAMY3-R; format: cell-based; conditions: cAMP assay, hAMY3 receptor; read-out: hAMY3R EC50
T1 sequence (P30988 25-474): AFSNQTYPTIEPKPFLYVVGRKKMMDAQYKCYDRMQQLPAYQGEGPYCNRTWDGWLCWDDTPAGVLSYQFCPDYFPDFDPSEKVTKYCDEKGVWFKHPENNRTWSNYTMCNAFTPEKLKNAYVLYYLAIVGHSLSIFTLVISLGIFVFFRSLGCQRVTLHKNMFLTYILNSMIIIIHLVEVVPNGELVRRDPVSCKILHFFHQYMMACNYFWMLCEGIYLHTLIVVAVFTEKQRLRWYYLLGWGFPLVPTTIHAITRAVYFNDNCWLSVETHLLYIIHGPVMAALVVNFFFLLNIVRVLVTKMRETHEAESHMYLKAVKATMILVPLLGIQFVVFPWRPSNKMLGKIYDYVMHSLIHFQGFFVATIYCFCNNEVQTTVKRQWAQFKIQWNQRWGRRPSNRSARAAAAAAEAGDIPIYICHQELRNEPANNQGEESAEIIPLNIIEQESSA
T1 sequence (O60896 24-148 partner): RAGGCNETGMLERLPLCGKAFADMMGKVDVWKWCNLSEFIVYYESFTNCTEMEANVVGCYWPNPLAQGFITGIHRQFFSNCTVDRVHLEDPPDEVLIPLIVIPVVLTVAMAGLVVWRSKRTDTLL
In short: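 Receptor activation was measured as cAMP accumulation in a monoclonal cell line stably overexpressing hAMY3. Stimulation with graded doses lasted 30 min at room temperature in the presence of 0.5 mM IBMX, with human amylin as positive control.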

[2] = Physical stability of peptide analogues (Thioflavin T fibrillation); format: physicochemical; conditions: maximum ThT signal normalized between hAMY maximum and buffer background; 40° C., shaking, four days; pH 7 per table title
In short: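 ThT fluorescence (450 nm excitation, 480 nm emission; 4 μM dye) was read every 10 min over four days at 40° C under 700 rpm shaking stress, after 1 h in pH 4 acetate or pH 7 phosphate (50 mM). Peak smoothed signal expressed as percent, scaled between buffer background and hAMY maximum.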

Compound	EC50 [1] [nM]	Max ThT signal (%) [2] [%]
CC[C@H](C)[C@H](NC(=O)[C@H](CCCCN)NC(=O)[C@H](CO)NC(=O)[C@H](CCCNC(=N)N)NC(=O)[C@@H]1CCCN1C(=O)[C@H](C)NC(=O)[C@@H](NC(=O)[C@H](CC(N)=O)NC(=O)[C@H](CC(=O)O)NC(=O)[C@H](CCCCN)NC(=O)[C@H](CC(=O)O)NC(=O)[C@H](CCCCN)NC(=O)[C@H](CC(=O)O)NC(=O)[C@@H](NC(=O)[C@H](Cc1ccccc1)NC(=O)[C@H](CCC(N)=O)NC(=O)[C@H](Cc1ccc(O)cc1)NC(=O)[C@@H](NC(=O)[C@H](CCC(N)=O)NC(=O)[C@H](Cc1c[nH]cn1)NC(=O)[C@H](C)NC(=O)[C@H](CC(C)C)NC(=O)[C@H](CCCNC(N)=O)NC(=O)[C@H](CCC(N)=O)NC(=O)[C@@H](NC(=O)[C@@H](NC(=O)[C@@H]1CSSC[C@H](NC(=O)CN)C(=O)N[C@@H](CCCNC(=N)N)C(=O)N[C@@H](Cc2ccccc2)C(=O)NCC(=O)N[C@@H]([C@@H](C)O)C(=O)N1)[C@@H](C)O)C(C)C)[C@@H](C)CC)[C@@H](C)O)C(C)C)C(=O)NCC(=O)N1CCC[C@H]1C(=O)N[C@@H](CCC(N)=O)C(=O)NCC(=O)N1C[C@H](O)C[C@H]1C(N)=O [compound 284] (H-GCRFGTCTVQ[Cit]LAHQIYQFTDKDKDNVAPRSKIGPQG[Hyp]-NH2; disulfide 2-7)	0.028	21.300
CC[C@H](C)[C@H](NC(=O)[C@H](CCC(N)=O)NC(=O)[C@H](Cc1c[nH]cn1)NC(=O)[C@H](C)NC(=O)[C@H](CC(C)C)NC(=O)[C@H](CCCNC(N)=O)NC(=O)[C@H](CCC(N)=O)NC(=O)[C@@H](NC(=O)[C@@H](NC(=O)[C@@H]1CSSC[C@H](NC(=O)CN)C(=O)N[C@@H](CCCNC(=N)N)C(=O)N[C@@H](Cc2ccccc2)C(=O)NCC(=O)N[C@@H]([C@@H](C)O)C(=O)N1)[C@@H](C)O)C(C)C)C(=O)N[C@@H](Cc1ccc(O)cc1)C(=O)N[C@@H](CCC(N)=O)C(=O)N[C@@H](Cc1ccccc1)C(=O)N[C@H](C(=O)N[C@@H](CC(=O)O)C(=O)N[C@@H](CCCCN)C(=O)N[C@@H](CC(=O)O)C(=O)N[C@@H](CCCCN)C(=O)N[C@@H](CC(=O)O)C(=O)N[C@@H](CC(N)=O)C(=O)N[C@H](C(=O)N[C@@H](C)C(=O)N1CCC[C@H]1C(=O)N[C@@H](CCCNC(=N)N)C(=O)N[C@@H](CO)C(=O)N[C@@H](CC(N)=O)C(=O)N[C@H](C(=O)N[C@@H](CO)C(=O)N1CCC[C@H]1C(=O)N[C@@H](CCC(N)=O)C(=O)NCC(=O)N[C@@H](Cc1ccc(O)cc1)C(N)=O)C(C)C)C(C)C)[C@@H](C)O [compound 286] (H-GCRFGTCTVQ[Cit]LAHQIYQFTDKDKDNVAPRSNVSPQGY-NH2; disulfide 2-7; N-terminus assumed)	0.025	2.900
CC[C@H](C)[C@H](NC(=O)[C@H](CCC(N)=O)NC(=O)[C@H](Cc1c[nH]cn1)NC(=O)[C@H](C)NC(=O)[C@H](CC(C)C)NC(=O)[C@H](CCCNC(N)=O)NC(=O)[C@H](CCC(N)=O)NC(=O)[C@@H](NC(=O)[C@@H](NC(=O)[C@@H]1CSSC[C@H](NC(=O)CN)C(=O)N[C@@H](CCCNC(=N)N)C(=O)N[C@@H](Cc2ccccc2)C(=O)NCC(=O)N[C@@H]([C@@H](C)O)C(=O)N1)[C@@H](C)O)C(C)C)C(=O)N[C@@H](Cc1ccc(O)cc1)C(=O)N[C@@H](CCC(N)=O)C(=O)N[C@@H](Cc1ccccc1)C(=O)N[C@H](C(=O)N[C@@H](CC(=O)O)C(=O)N[C@@H](CCCCN)C(=O)N[C@@H](CC(=O)O)C(=O)N[C@@H](CCCCN)C(=O)N[C@@H](CC(=O)O)C(=O)N[C@@H](CC(N)=O)C(=O)N[C@H](C(=O)N[C@@H](C)C(=O)N1CCC[C@H]1C(=O)N[C@@H](CCCNC(=N)N)C(=O)N[C@@H](CO)C(=O)N[C@@H](CC(N)=O)C(=O)N[C@H](C(=O)NCC(=O)N1CCC[C@H]1C(=O)N[C@@H](CCC(N)=O)C(=O)NCC(=O)N1C[C@H](O)C[C@H]1C(N)=O)C(C)C)C(C)C)[C@@H](C)O [compound 289] (H-GCRFGTCTVQ[Cit]LAHQIYQFTDKDKDNVAPRSNVGPQG[Hyp]-NH2; disulfide 2-7; N-terminus assumed)	0.005	21.150
CC[C@H](C)[C@H](NC(=O)[C@H](CCC(N)=O)NC(=O)[C@H](Cc1c[nH]cn1)NC(=O)[C@H](C)NC(=O)[C@H](CC(C)C)NC(=O)[C@H](CCCNC(N)=O)NC(=O)[C@H](CCC(N)=O)NC(=O)[C@@H](NC(=O)[C@@H](NC(=O)[C@@H]1CSSC[C@H](NC(=O)CN)C(=O)N[C@@H](CCCNC(=N)N)C(=O)N[C@@H]([C@@H](C)O)C(=O)NCC(=O)N[C@@H]([C@@H](C)O)C(=O)N1)[C@@H](C)O)C(C)C)C(=O)N[C@@H](Cc1ccc(O)cc1)C(=O)N[C@@H](CCC(N)=O)C(=O)N[C@@H](Cc1ccccc1)C(=O)N[C@H](C(=O)N[C@@H](CC(=O)O)C(=O)N[C@@H](CCCCN)C(=O)N[C@@H](CC(=O)O)C(=O)N[C@@H](CCCCN)C(=O)N[C@@H](CC(=O)O)C(=O)N[C@@H](CC(N)=O)C(=O)N[C@H](C(=O)N[C@@H](C)C(=O)N1CCC[C@H]1C(=O)N[C@@H](CCCNC(=N)N)C(=O)N[C@H](C(=O)N[C@@H](CC(N)=O)C(=O)N[C@H](C(=O)N[C@@H](CO)C(=O)N1CCC[C@H]1C(=O)N[C@@H](CC(N)=O)C(=O)NCC(=O)N1C[C@H](O)C[C@H]1C(N)=O)C(C)C)[C@@H](C)O)C(C)C)[C@@H](C)O [compound 302] (H-GCRTGTCTVQ[Cit]LAHQIYQFTDKDKDNVAPRTNVSPNG[Hyp]-NH2; disulfide 2-7; N-terminus assumed)	0.071	24.250
CC[C@H](C)[C@H](NC(=O)[C@H](CCC(N)=O)NC(=O)[C@H](Cc1c[nH]cn1)NC(=O)[C@H](C)NC(=O)[C@H](CC(C)C)NC(=O)[C@H](Cc1c[nH]c2ccccc12)NC(=O)[C@H](CCC(N)=O)NC(=O)[C@@H](NC(=O)[C@@H](NC(=O)[C@@H]1CSSC[C@H](NC(=O)CN)C(=O)N[C@@H](CCCNC(=N)N)C(=O)N[C@@H](Cc2ccccc2)C(=O)NCC(=O)N[C@@H]([C@@H](C)O)C(=O)N1)[C@@H](C)O)C(C)C)C(=O)N[C@@H](Cc1ccc(O)cc1)C(=O)N[C@@H](CCC(N)=O)C(=O)N[C@@H](Cc1ccccc1)C(=O)N[C@H](C(=O)N[C@@H](CC(=O)O)C(=O)N[C@@H](CCCCN)C(=O)N[C@@H](CC(=O)O)C(=O)N[C@@H](CCCCN)C(=O)N[C@@H](CC(=O)O)C(=O)N[C@@H](CC(N)=O)C(=O)N[C@H](C(=O)N[C@@H](C)C(=O)N1CCC[C@H]1C(=O)N[C@@H](CCCNC(=N)N)C(=O)N[C@H](C(=O)N[C@@H](CCCCN)C(=O)N[C@H](C(=O)NCC(=O)N1CCC[C@H]1C(=O)N[C@@H](CCC(N)=O)C(=O)NCC(=O)N1C[C@H](O)C[C@H]1C(N)=O)C(C)C)[C@@H](C)O)C(C)C)[C@@H](C)O [compound 322] (H-GCRFGTCTVQWLAHQIYQFTDKDKDNVAPRTKVGPQG[Hyp]-NH2; disulfide 2-7; N-terminus assumed)	0.014	18.400
